Measured values from US20230279001A1, “IMIDAZO[1,2-A]PYRIDINE COMPOUNDS FOR THE TREATMENT OF AUTOIMMUNE DISEASE” (Hoffmann-La Roche Inc., priority 2020, published 2023).

How the values were obtained:
TLR9 = TLR9 (Homo sapiens (Human), UniProt Q9NR96); assay: Human PBMC cell-based assay, TLR9; settings: CpG ODN 2216 at 1 μM, overnight, cytokine readout, read-out: hPBMC/TLR9 IC50
Excerpt: Unlike the HEK reporter cell lines, human peripheral blood mononuclear cell (PBMC) represents primary human immune cells in blood mainly consisting of lymphocytes, monocytes, and dendritic cells. These cells express TLR7, TLR8, or TLR9, and therefore are natural responders to respective ligand stimulation. Upon activation of these TLRs, PBMCs secrete similar cytokines and chemokines in vitro and in vivo, and therefore the in vitro potency of a TLR7/8/9 antagonist in human PBMC is readily translatable to its pharmacodynamics response in vivo.
Human peripheral blood mononuclear cells (PBMC) were isolated from freshly-drawn lithium-heparinized (Lithium Heparin Plus blood Collection tube, BD Vacutainer®) healthy donor whole blood by density gradient (Ficoll-Paque™ PLUS, GE Healthcare life Sciences). Briefly, […] was diluted with 25 mL PBS (without Ca^2+, Mg^2+) in a 50 mL conical tube with porous barrier (Leucosep tube, Greiner bio-one), where 15.5 mL Ficoll-Paque was under laid after spinning. Tubes were centrifuged for 20 minutes at 800×g (1946 rpm) with the brake in the off position, and PBMC were collected from the buffy coat. Cells were then washed twice in PBS, and red blood cells were lysed by suspension in 2 mL (Red Blood Cell Lysis Buffer, Alfa Aesar) for 5-10 minutes at room temperature. After a final wash in PBS, PBMC were resuspended at a final concentration of 2×10^6 cells/mL in RPMI-1640 media with GlutaMAX™ (Gibco) supplemented with 10% Fetal Bovine Serum (Sigma) and plated at 150 μL/well (3×10^5 cells/well) in tissue culture treated round bottom 96-well plates (Corning Incorporated). Antagonist compounds (compounds of this invention) solubilized and serial diluted in 100% DMSO were added in duplicate to cells to yield a final concentration of 1% DMSO (v/v). PBMC were incubated with antagonist compounds for 30 minutes at 37° C., 5% CO2 before adding various TLR agonist reagents in 48 μL complete media per well as follows (final concentrations indicated): CpG ODN 2216 (InvivoGen) at 1 μM for TLR9, ORN 06/LyoVec (InvivoGen) at 1 μg/mL for TLR8 and R848 (InvivoGen) at 1 μg/mL for TLR7 and TLR8. PBMC were incubated overnight at 37° C. with 5% CO2. Cell culture supernatants were collected, and levels of various human cytokines were assessed by Luminex assay (ProcartaPlex™ Multiplex Immunoassay, Invitrogen) or ELISA procedure according to the manufacturer's recommended protocol (eBioscience, ThermoFisher Scientific). Viability of the cells was also checked with Cell Viability Assay (CellTiter Glo®Luminescent Cell Viability Assay, Promega).

[1] = Parallel Artificial Membrane Permeability Assay (PAMPA); type: in vitro ADME; settings: for Membrane Retention / Papp at 4 h: PAMPA, pH 7.40, 4 hours; for Papp at 4 h: pH 7.4, room temperature, read-out: PAMPA Pe; for PAMPA category: classified by Pe and membrane retention
Description: PAMPA (Parallel Artificial Membrane Permeability Assay) is a first-line permeability screen for drug candidates. This assay mimics the transcellular absorption conditions using an artificial phospholipid membrane and generates a permeability value that can be used for compound ranking and optimization as well as input parameters for in silico models to predict intestinal absorption.
Permeation experiments are carried out in hydrophobic PVDF 96-well microtiter filter plates (MultiScreen Filter Plate, Millipore, #MAIPN4550). Each well is coated with PVDF membrane, which is prepared with 5 μL Dodecane (Sigma, D221104) that contains 1% lecithin (Sigma, P3556-1G).
The typical PAMPA experimental protocol is as follows: The donor plate is placed on a Teflon acceptor plate that has been pre-filled with […] of 100 mM PBS buffer (2.6 g KH2PO4 and 18.5 g K2HPO4·3H2O are dissolved in about 1000 mL of ultra-pure water and mixed thoroughly. The pH is adjusted to 7.40±0.05, using either 1 M sodium hydroxide or 1M hydrochloric acid) containing 5% DMSO. The filter on the bottom of each acceptor well is filled with 300 μL of 100 mM PBS buffer (2.6 g KH2PO4 and 18.5 g K2HPO4·3H2O are dissolved in about 1000 mL of ultra-pure water, mixed thoroughly. The pH was adjusted to 7.40±0.05, using either 1 M sodium hydroxide or 1M hydrochloric acid). The resulting sandwich is incubated at room temperature under constant shaking (300 rpm) for 4 hours. The sandwich is then disassembled. Before incubation, spike 20 μL dosing solution and mix with 250 μL PBS and 130 μL quench solution (acetonitrile) as TO sample. After incubation, collect 270 μL solutions from acceptor chamber, followed by the addition of 130 μL acetonitrile. Collect 20 μL solution from donor chamber and add 250 μL PBS and 130 μL acetonitrile. The concentration of compound in all samples are determined by LC-MS/MS and the equations for determining the permeability (Pe, 10^−6 cm/s) are as follows.
VD is the volume of the donor well; VR is the volume of the acceptor well; Area is the active surface area of membrane; Time is the incubation time (14,400 s in this assay); CR and CD are the concentrations of compound in acceptor and donor solutions, respectively, at the completion of the assay; C0 is the concentration of compound in donor solution before incubation.
The main readout of the PAMPA assay is the permeability value Pe expressed in 10^−6 cm/s. Secondary readouts determined are the amounts of compound in the donor and acceptor compartments as well as compound retention in the membrane. Depending on the permeation rate and the membrane retention, compounds are classified as “low” (Pe<0.2 and membrane retention<20%) or “medium & high” (Pe>=0.2; or Pe<0.2 and membrane retention>=20%). Each sample is measured in triplicate; the standard deviation is determined for the permeation constant Pe.

[2] = Human microsome stability assay; type: in vitro ADME; settings: human liver microsomes, 1 μM test compound, 37° C., NADPH regenerating system
Description: The human microsomal stability assay is used for early assessment of metabolic stability of a test compound in human liver microsomes.
Human liver microsomes (Cat. NO.: 452117, Corning, USA; Cat. NO.: H2610, Xenotech, USA) were preincubated with test compound for 10 minutes at 37° C. in 100 mM potassium phosphate buffer, pH 7.4. The reactions were initiated by adding NADPH regenerating system. The final incubation mixtures contained 1 μM test compound, 0.5 mg/mL liver microsomal protein, 1 mM MgCl2, 1 mM NADP, 1 unit/mL isocitric dehydrogenase and 6 mM isocitric acid in 100 mM potassium phosphate buffer, pH 7.4. After incubation times of 0, 3, 6, 9, 15 and 30 minutes at 37° C., 300 μL of cold acetonitrile (including internal standard) was added to 100 μL incubation mixture to terminate the reaction. Following precipitation and centrifugation, the amount of compound remaining in the samples were determined by LC-MS/MS. Controls of no NADPH regenerating system at zero and 30 minutes were also prepared and analyzed.

Sequence of TLR9 (Q9NR96 26-1032): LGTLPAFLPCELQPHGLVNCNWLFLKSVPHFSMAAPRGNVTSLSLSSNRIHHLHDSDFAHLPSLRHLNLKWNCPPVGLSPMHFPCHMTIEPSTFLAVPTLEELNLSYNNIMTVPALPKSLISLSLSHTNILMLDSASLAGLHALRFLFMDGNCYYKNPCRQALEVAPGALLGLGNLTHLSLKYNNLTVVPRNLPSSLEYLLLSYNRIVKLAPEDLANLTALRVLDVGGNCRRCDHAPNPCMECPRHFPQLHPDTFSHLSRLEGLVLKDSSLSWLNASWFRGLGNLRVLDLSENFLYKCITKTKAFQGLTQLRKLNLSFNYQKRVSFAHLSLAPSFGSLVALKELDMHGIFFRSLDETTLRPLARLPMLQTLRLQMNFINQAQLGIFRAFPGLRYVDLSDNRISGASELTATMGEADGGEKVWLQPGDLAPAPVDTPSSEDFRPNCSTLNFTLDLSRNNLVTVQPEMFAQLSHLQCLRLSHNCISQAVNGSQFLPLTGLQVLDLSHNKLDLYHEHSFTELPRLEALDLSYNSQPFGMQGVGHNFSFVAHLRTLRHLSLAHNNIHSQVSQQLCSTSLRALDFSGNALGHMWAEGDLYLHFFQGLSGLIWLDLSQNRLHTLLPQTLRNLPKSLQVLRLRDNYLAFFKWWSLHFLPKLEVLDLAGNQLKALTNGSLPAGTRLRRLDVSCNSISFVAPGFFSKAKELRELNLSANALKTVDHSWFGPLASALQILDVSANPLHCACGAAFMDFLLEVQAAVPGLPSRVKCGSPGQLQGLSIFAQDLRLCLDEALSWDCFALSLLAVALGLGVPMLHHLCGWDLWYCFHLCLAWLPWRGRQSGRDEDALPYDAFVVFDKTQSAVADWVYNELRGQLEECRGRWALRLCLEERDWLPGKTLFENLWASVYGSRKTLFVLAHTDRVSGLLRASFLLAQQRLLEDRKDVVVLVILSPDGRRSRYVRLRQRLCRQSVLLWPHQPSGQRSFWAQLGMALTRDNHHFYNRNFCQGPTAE

Row | IC50 (TLR9) [µM] | Membrane Retention [1] [%] | Papp at 4 h [1] [×10⁻⁶ cm/s] | Clearance of Human microsome [2] [mL/min/kg] | SMILES | PAMPA category [1]
1 | 0.5 | 49 | 0.88 | 7.20 | Cc1cc(-c2cc(C)c3nccn3c2)cnc1N1CCC(N2CCN(C)CC2)CC1 [Example 9, 8-methyl-6-[5-methyl-6-[4-(4-methylpiperazin-1-yl)-1-piperidyl]-3-pyridyl]imidazo[1,2-a]pyridine] | medium & high (“medium & high” (Pe>=0.2; or Pe<0.2 and membrane retention>=20%))
2 | 0.29 | 7.03 | 1 | 6.15 | Cc1cn2cc(-c3ccc(N4CCC(N5CC(C)(N)C5)CC4)nc3C(F)F)cc(C)c2n1 [Example 12, 1-[1-[6-(difluoromethyl)-5-(2,8-dimethylimidazo[1,2-a]pyridin-6-yl)-2-pyridyl]-4-piperidyl]-3-methyl-azetidin-3-amine] | medium & high (“medium & high” (Pe>=0.2; or Pe<0.2 and membrane retention>=20%))
3 | 0.25 | – | – | 9.45 | CCc1nc(N2CCC(N3CC4(CNCCO4)C3)CC2)ccc1-c1cc(C)c2nccn2c1 [Example 14, 2-[1-[6-ethyl-5-(8-methylimidazo[1,2-a]pyridin-6-yl)-2-pyridyl]-4-piperidyl]-5-oxa-2,8-diazaspiro[3.5]nonane] | –
